Molecular target: T1, RALA (Homo sapiens, UniProt P11233)
T1 construct: recombinant RALA, site-specifically biotinylated on the N-terminus
T1 sequence (P11233 1-203): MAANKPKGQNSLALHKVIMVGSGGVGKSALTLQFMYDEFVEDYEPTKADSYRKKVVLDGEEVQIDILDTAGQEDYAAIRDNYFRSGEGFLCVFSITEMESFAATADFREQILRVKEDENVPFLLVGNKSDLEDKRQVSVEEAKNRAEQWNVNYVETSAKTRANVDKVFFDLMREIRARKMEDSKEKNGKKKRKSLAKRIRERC
Assay: SPR (Biacore 8K, steady-state affinity, biotinylated RALA on SA chip)
Assay type: binding

Kd: 948 nM
Substance: OSURALi
